According to patent US8314075B2, “Compositions and methods for inhibiting expression of huntingtin gene” (Alynylam Pharmaceuticals, Inc., priority 2005, dated 2012):

Key:
Huntingtin mRNA [1] = experiment: In vivo down-modulation of endogenous HD mRNA by continuous intrastriatal infusion in rats; design: species or system rat; settings: 1.3 mg over 7 days (0.5 uL/hr at 1.1 mM), ipsilateral striatum
Experimental: In rats, 1.3 mg AL-DP-1997 or AL-DP-1998, or phosphate-buffered saline (PBS, vehicle control) was administered by continuous intrastriatal infusion over 7 days. Male Sprague-Dawley rats, approximately 250-300 g body weight, received stereotaxic implantation of 30-gauge infusion cannulae (Plastics One, Roanok, Va.) such that unilateral injections were targeted to the center of the striatum (anteroposterior+0.7 mm, mediolateral+3.0 mm, relative to bregma; dorsoventral 5 mm, relative to skull surface). Mini-osmotic pumps (model 1007D) were primed overnight according to the manufacturer's specifications, implanted subcutaneously, and connected via catheters, to deliver (4 rats per treatment group) PBS, 1.1 mM AL-DP-1997 or 1.1 mM AL-DP-1998 at 0.5 uL/hr over 7 days. At the end of the 7 day infusion period, animals were sacrificed, brains were removed, and ipsilateral striata encompassing the infusion site were flash frozen. Tissue samples of about 5-30 mg each were homogenized by sonication (BANDELIN electronic GmbH & Co. KG, Berlin, Germany) in Tissue and Cell Lysis solution (Epicentre, Madison, Wis.) containing 84 μg/ml Proteinase K (Epicentre, Madison, Wis.). Lysates were then stored at −80° C. For carrying out the bDNA assay, frozen lysates were thawed at room temperature, and Huntingtin and GAPDH mRNA were quantified using the Quantigene Explore Kit according to the manufacturer's instructions. For each tissue sample, the ratio of Huntingtin/GAPDH (normalized Huntingtin mRNA level) was calculated as an average of four determinations. These ratios were then averaged to obtain a group (treatment) average. The unconjugated dsRNA, AL-DP-1997, reduced the normalized Huntingtin mRNA level by 33%, relative to the PBS control group, whereas the cholesterol-conjugated dsRNA, AL-DP-1998, reduced the normalized Huntingtin mRNA level by 26%, relative to the PBS control group. Both reductions were statistically significant (p<0.05, ANOVA with Tukey post-hoc analysis).
With an identical experimental paradigm, AL-DP-5997 and AL-DP-6000 were also found to be effective in vivo in down-modulating HD mRNA levels after intrastriatal infusion with 1.3 mg over 7 days (0.5 uL/hr at 1.1 mM) in rats. AL-DP-5997 and AL-DP-6000 reduced the normalized Huntingtin mRNA levels in striatal tissue by 34% and 36%, respectively, relative to the PBS control group. In addition, AL-DP-5997 and AL-DP-6000 reduced the normalized Huntingtin mRNA levels in cortical tissue by 22% and 26% respectively.

Huntingtin mRNA [2] = experiment: In vivo down-modulation of endogenous HD mRNA by intrastriatal infusion in mice; design: species or system mouse; settings: Balb/c mice, 75 ug by 20 minute intrastriatal infusion, ipsilateral striatum, approximately 72 hours after injection
Experimental: In mice, 75 ug AL-DP-1998, or phosphate-buffered saline (PBS, vehicle control) was administered by a 20 minute intrastriatal infusion. Male Balb/c mice, approximately 20-25 g body weight, received unilateral injections of test article that were targeted to the striatum (anteroposterior+0.5 mm, mediolateral+2.0 mm, relative to bregma; dorsoventral 3.5 mm, relative to skull surface). Test articles (1.1 mM) were injected (4 animals per test article) at 0.25 uL/min. using pre-filled, pump-regulated Hamilton micro-syringes connected to a 33 gauge needle. Approximately 72 hours following the injection, animals were sacrificed, brains were removed, and ipsilateral striata encompassing the infusion site were dissected and flash frozen. As described above for rat tissue samples, mouse tissue samples were lysed, and Huntingtin and GAPDH mRNA levels quantified. For each tissue sample, the ratio of Huntingtin/GAPDH (normalized Huntingtin mRNA level) was calculated as an average of four determinations. These ratios were then averaged to obtain a group (treatment) average. The cholesterol-conjugated dsRNA, AL-DP-1998, reduced the normalized Huntingtin mRNA level by 33%, relative to the PBS control group, which was statistically significant (p<0.05, ANOVA with Tukey post-hoc analysis).

AL-DP-1998: cholesterol-conjugated dsRNA based on AL-DP-5997, antisense 3'-end TT replaced with 5-bromo-2'-deoxyuridine; SEQ ID NO: 888/889 (chain 1 GUCACAAAGAACCGUGCAGTT; chain 2 CUGCACGGUUCUUUGUGACNN; chemistry not fully specified)
reduction of normalized Huntingtin mRNA level in striatal tissue relative to the PBS control group (Huntingtin mRNA [1]): 26%
reduction of normalized Huntingtin mRNA level relative to the PBS control group (Huntingtin mRNA [2]): 33%
